# Data reported in ChEMBL document CHEMBL1131006, “Antimycobacterial activity of substituted isosteres of pyridine- and pyrazinecarboxylic acids” (1998).
# Tested on: Mycobacterium tuberculosis
# Experiment: Compound was tested for inhibitory activity against Mycobacterium tuberculosis H37Rv ATCC 27294 and the activity is expressed as minimum inhibitory concentration (MIC).
# Assay type: functional
row,SMILES,MIC [µg/mL]
1,CC(C)(C)C(=O)OCn1nnnc1-c1cnccn1,13
2,c1cnc(C2N=NN=N2)cn1,> 210
3,CC(C)(C)C(=O)OCn1nnc(-c2cccnc2)n1,13
4,CC(=O)Oc1cc(=O)oc2cnccc12,> 210
5,C[S+]([O-])CC(=O)c1cccnc1 (stereo unspecified),> 210
6,CC(C)(C)C(=O)OCn1nnnc1-c1ccncc1,52
7,O=c1cc(O)c2ccncc2o1,> 210
8,c1cc(C2N=NN=N2)ccn1,> 210
9,C[S+]([O-])CC(=O)c1ccncc1 (stereo unspecified),> 210
10,CSCC(=O)c1cccnc1,210
11,C[S+]([O-])CC(=O)c1cnccn1 (stereo unspecified),> 210
12,CC(C)(C)C(=O)OCn1nnnc1-c1cccnc1,105
13,c1cncc(C2N=NN=N2)c1,> 210
14,CSCC(=O)c1cnccn1,105
15,CSCC(=O)c1ccncc1,210
16,CC(C)(C)C(=O)OCn1nnc(-c2cnccn2)n1,26
17,CCOC(=O)Oc1cc(=O)oc2cnccc12,> 210
18,O=C(Oc1cc(=O)oc2cnccc12)c1ccccc1,210
19,CC(C)(C)C(=O)OCn1nnc(-c2ccncc2)n1,26
20,NNC(=O)c1ccncc1 [ISONIAZID],< 0.02
21,NC(=O)c1cnccn1 [PYRAZINAMIDE],52
